Assay results reported in patent US20220227745A1, “Compounds For Modulating FXR” (NANJING RUIJIE PHARMA TECH CO., LTD., priority 2019, published 2022).

Target: T1, FXR LBD, GST (Homo sapiens, UniProt Q96RI1)
T1 construct: FXR LBD, GST; purchased Invitrogen PV4834
T1 sequence (Q96RI1 262-486 limits assumed): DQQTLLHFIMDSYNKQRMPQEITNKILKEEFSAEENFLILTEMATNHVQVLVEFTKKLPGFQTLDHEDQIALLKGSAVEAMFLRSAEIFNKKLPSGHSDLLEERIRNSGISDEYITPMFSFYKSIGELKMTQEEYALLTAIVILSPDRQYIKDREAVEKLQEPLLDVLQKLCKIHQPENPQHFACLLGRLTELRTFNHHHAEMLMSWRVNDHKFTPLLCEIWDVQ
Test: FXR Binding Assay (TR-FRET, Fluorescein-SRC2-2 coactivator peptide)
Conditions: for EC50: TR-FRET FXR LBD coactivator recruitment; for Emax: read-out: Pct Effect (Emax %)
Experimental: The interaction between the present compounds and FXR are evaluated by Time-Resolved Fluorescence Resonance Energy Transfer (TR-FRET) competition assay. FRET describes a radiation-free energy transfer between two chromophores: a donor fluorophore in its excited state can transfer energy to an acceptor fluorophore in close proximity (typically <10 nm). In contrast to standard FRET, TR-FRET unites time-resolved fluorescence (TRF) and the FRET principle, TRF use a long-lifetime lanthanide chelate as the donor species, while lanthanide chelates are unique in that their excited-state lifetime can be on the order of a millisecond or longer. Suitable neighbors for FRET are known in the art and can be obtained.
The assay was performed in following steps: first, prepared a) 1 mM compounds (100×) in DMSO; b) reaction buffer containing 1× buffer G with 10 mM DTT; c) 4×FXR LBD (20 nM) in 1× chilled buffer G. Second, performed 3-fold serial dilution of 1 mM test compounds using DMSO from 1 mM, 10 doses in a 96-well plate (249944, Nunc). Then, used complete buffer G to dilute each 100× compounds serial dilution to 2×. Third, added 10 μl 2× compound serial dilution into 384-well plate (3677, Corning). Then, added 5 μl FXR LBD into the assay plate. Prepared a solution containing 2 μM fluorescein-SRC2-2 (4×) and 20 nM Tb anti-GST antibody (4×) in buffer G at room temperature and started the reaction by adding 5 μl the above solution into each well of the assay plate. Centrifuged the assay plates at 1000 g for 1 min and then incubated at room temperature for lhr protected from light. Finally, the plate was read at wavelengths of 520 nm and 495 nm on Envision 2104 plate reader (PerkinElmer).
A ratio (Ratio520 nm/495 nm−Ratiobackground) was calculated for each well. The activity ratio was calculated as follow: […]
Ratiopositive: The average ratio for the positive control across the plate.
Ratiovehicle: The average ratio for negative controls across the plate.
EC50 was calculated by fitting % Activity values and log of compound concentrations to nonlinear regression (dose response-variable slope) with GraphPad 5.0.
X: log of compound concentration.

[1] = % Activity relative to positive control

In the case of `Cn1cc(C(=O)O)c2ccc(N3CCN(CCc4c(-c5c(F)cccc5F)noc4C4CC4)CC3)cc21` [Example I11, 6-(4-(2-(5-cyclopropyl-3-(2,6-difluorophenyl)isoxazol-4-yl)ethyl)piperazin-1-yl)-1-methyl-1H-indole-3-carboxylic Acid], the EC50 is reported as 1640 nM.
For `Cn1cc(C(=O)O)c2ccc(N3CCN(CCc4c(-c5ccccc5Cl)noc4C4CC4)CC3)cc21` [Example I9, 6-(4-(2-(3-(2-chlorophenyl)-5-cyclopropylisoxazol-4-yl)ethyl)piperazin-1-yl)-1-methyl-1H-indole-3-carboxylic Acid], the Emax [1] was 206% and the EC50 was 1220 nM.
Work on `O=C(O)c1ccc2nc(N3CC4CC(C3)C4OCc3c(-c4ccccc4OC(F)(F)F)noc3C3CC3)sc2c1` (stereo not shown) [Example I66, 2-(6-((5-cyclopropyl-3-(2-(trifluoromethoxy)phenyl)isoxazol-4-yl)methoxy)-3-azabicyclo[3.1.1]heptan-3-yl)benzo[d]thiazole-6-carboxylic Acid] yielded an EC50 of over 10000 nM.
`O=C(O)c1cc(F)c2nc(N3C4CCC3CN(CCc3c(-c5ccccc5OC(F)(F)F)noc3C3CC3)C4)sc2c1` [Example I32, 2-(3-(2-(5-cyclopropyl-3-(2-(trifluoromethoxy)phenyl)isoxazol-4-yl)ethyl)-3,8-diazabicyclo[3.2.1]octan-8-yl)-4-fluorobenzo[d]thiazole-6-carboxylic Acid] gave an Emax [1] of 47.7% and an EC50 of 129 nM.
`COC(=O)c1cn(C)c2cc(N3CCC(N(C)Cc4c(-c5c(Cl)cccc5Cl)noc4C4CC4)CC3)ccc12` [Example I59, methyl 6-(4-(((5-cyclopropyl-3-(2,6-dichlorophenyl)isoxazol-4-yl)methyl)(methyl)amino)piperidin-1-yl)-1-methyl-1H-indole-3-carboxylate] gave an EC50 of over 10000 nM.
Molecule `Cn1cc(C(=O)O)c2ccc(N3CCN(CCc4c(-c5ccccc5F)noc4C4CC4)CC3)cc21` [Example I19, 6-(4-(2-(5-cyclopropyl-3-(2-fluorophenyl)isoxazol-4-yl)ethyl)piperazin-1-yl)-1-methyl-1H-indole-3-carboxylic Acid] has an Emax [1] of 104% and an EC50 of 4360 nM.
`Cn1cc(C(=O)O)c2ccc(N3CC4CC(C3)C4OCc3c(-c4c(Cl)cccc4Cl)noc3C3CC3)cc21` (stereo not shown) [Example I61, 6-(6-((5-cyclopropyl-3-(2,6-dichlorophenyl)isoxazol-4-yl)methoxy)-3-azabicyclo[3.1.1]heptan-3-yl)-1-methyl-1H-indole-3-carboxylic Acid] was tested, and the Emax [1] was 67.7% and the EC50 was 616 nM.
Work on `COC(=O)c1cn(C)c2cc(N3CCC(C)N(CCc4c(-c5c(Cl)cccc5Cl)noc4C4CC4)CC3)ccc12` (stereo not shown) [Example I56, methyl 6-(4-(2-(5-cyclopropyl-3-(2,6-dichlorophenyl)isoxazol-4-yl)ethyl)-5-methyl-1,4-diazepan-1-yl)-1-methyl-1H-indole-3-carboxylate] yielded an EC50 of over 10000 nM.
In the case of `Cn1cc(C(=O)O)c2ccc(N3CC4CCC(C3)N4CCc3c(-c4c(Cl)cccc4Cl)noc3C3CC3)cc21` [Example I41, 6-(8-(2-(5-cyclopropyl-3-(2,6-dichlorophenyl)isoxazol-4-yl)ethyl)-3,8-diazabicyclo[3.2.1]octan-3-yl)-1-methyl-1H-indole-3-carboxylic Acid], the Emax [1] is reported as 158% and the EC50 is reported as 200 nM.
Molecule `O=C(O)c1cc(F)c2nc(N3CC4CC(C3)C4OCc3c(-c4ccccc4OC(F)(F)F)noc3C3CC3)sc2c1` (stereo not shown) [Example I60, 2-(6-((5-cyclopropyl-3-(2-(trifluoromethoxy)phenyl)isoxazol-4-yl)methoxy)-3-azabicyclo[3.1.1]heptan-3-yl)-4-fluorobenzo[d]thiazole-6-carboxylic Acid] has an Emax [1] of 35.3% and an EC50 of 732 nM.
With `Cn1cc(C(=O)O)c2ccc(N3CC4CC3CN4CCc3c(-c4c(Cl)cccc4Cl)noc3C3CC3)cc21` (stereo not shown) [Example I29, 6-(5-(2-(5-cyclopropyl-3-(2,6-dichlorophenyl)isoxazol-4-yl)ethyl)-2,5-diazabicyclo[2.2.1]heptan-2-yl)-1-methyl-1H-indole-3-carboxylic Acid] the “Pct Effect (Emax %)” value [1] was 68.08% and the EC50 was 3810 nM.
`CC(Cc1c(-c2c(Cl)cccc2Cl)noc1C1CC1)N1CCN(c2ccc3c(C(=O)O)cn(C)c3c2)CC1` (stereo not shown) [Example I23, 6-(4-(1-(5-cyclopropyl-3-(2,6-dichlorophenyl)isoxazol-4-yl)propan-2-yl)piperazin-1-yl)-1-methyl-1H-indole-3-carboxylic Acid] showed an Emax [1] of 35.7% and an EC50 of 1370 nM.
In the case of `CC1CN(CCc2c(-c3c(Cl)cccc3Cl)noc2C2CC2)CCN1c1ccc(CC(=O)O)cc1` (stereo not shown) [Example I13, 2-(4-(4-(2-(5-cyclopropyl-3-(2,6-dichlorophenyl)isoxazol-4-yl)ethyl)-2-methylpiperazin-1-yl)phenyl)acetic Acid], the Emax [1] is reported as 34.9% and the EC50 is reported as 1530 nM.
For `O=C(O)c1ccc2nc(N3CC4CC(C3)C4OCc3c(-c4c(Cl)cccc4Cl)noc3C3CC3)sc2c1` (stereo not shown) [Example I65, 2-(6-((5-cyclopropyl-3-(2,6-dichlorophenyl)isoxazol-4-yl)methoxy)-3-azabicyclo[3.1.1]heptan-3-yl)benzo[d]thiazole-6-carboxylic Acid], the EC50 was over 10000 nM.
Molecule `O=C(O)c1ccc2nc(N3CC4CC(C3)C4OCc3c(-c4c(Cl)cccc4Cl)noc3C3CC3)sc2c1` (stereo not shown) [Example I67, 2-(6-((5-cyclopropyl-3-(2,6-dichlorophenyl)isoxazol-4-yl)methoxy)-3-azabicyclo[3.1.1]heptan-3-yl)benzo[d]thiazole-6-carboxylic Acid] has an EC50 of over 10000 nM.
`CC1CCN(c2ccc3c(C(=O)O)cn(C)c3c2)CCN1CCc1c(-c2c(Cl)cccc2Cl)noc1C1CC1` (stereo not shown) [Example I55, 6-(4-(2-(5-cyclopropyl-3-(2,6-dichlorophenyl)isoxazol-4-yl)ethyl)-5-methyl-1,4-diazepan-1-yl)-1-methyl-1H-indole-3-carboxylic Acid] gave an Emax [1] of 70.9% and an EC50 of 2770 nM.
`CC1CN(c2ccc3nc(C(=O)O)ccc3c2)CCN1CCc1c(-c2c(Cl)cccc2Cl)noc1C1CC1` (stereo not shown) [Example I52, 6-(4-(2-(5-cyclopropyl-3-(2,6-dichlorophenyl)isoxazol-4-yl)ethyl)-3-methylpiperazin-1-yl)quinoline-2-carboxylic Acid] showed an Emax [1] of 121% and an EC50 of 209 nM.
`O=C(O)c1cc(F)c2nc(N3C4CCC3CN(CCc3c(-c5c(Cl)cccc5Cl)noc3C3CC3)C4)sc2c1` [Example I31, 2-(3-(2-(5-cyclopropyl-3-(2,6-dichlorophenyl)isoxazol-4-yl)ethyl)-3,8-diazabicyclo[3.2.1]octan-8-yl)-4-fluorobenzo[d]thiazole-6-carboxylic Acid] showed an Emax [1] of 45.1% and an EC50 of 41 nM.
`C[C@H]1CN(CCc2c(-c3c(Cl)cccc3Cl)noc2C2CC2)CCN1c1ccc2c(C(=O)O)cn(C)c2c1` [Example I39, (S)-6-(4-(2-(5-cyclopropyl-3-(2,6-dichlorophenyl)isoxazol-4-yl)ethyl)-2-methylpiperazin-1-yl)-1-methyl-1H-indole-3-carboxylic Acid] showed an Emax [1] of 129% and an EC50 of 150 nM.
Molecule `C[C@@H]1CN(CCc2c(-c3c(Cl)cccc3Cl)noc2C2CC2)C[C@H](C)N1c1ccc2c(C(=O)O)cn(C)c2c1` [Example I43, 6-((2S,6R)-4-(2-(5-cyclopropyl-3-(2,6-dichlorophenyl)isoxazol-4-yl)ethyl)-2,6-dimethylpiperazin-1-yl)-1-methyl-1H-indole-3-carboxylic Acid] has an Emax [1] of 110% and an EC50 of 1400 nM.
With `O=C(O)c1ccc2nc(N3C4CCC3CN(CCc3c(-c5c(Cl)cccc5Cl)noc3C3CC3)C4)sc2c1` [Example I33, 2-(3-(2-(5-cyclopropyl-3-(2,6-dichlorophenyl)isoxazol-4-yl)ethyl)-3,8-diazabicyclo[3.2.1]octan-8-yl)benzo[d]thiazole-6-carboxylic Acid] the Emax [1] was 43.3% and the EC50 was 97 nM.
`CC1CN(CCc2c(-c3c(Cl)cccc3Cl)noc2C2CC2)CCN1c1ccc2nc(C(=O)O)ccc2c1` (stereo not shown) [Example I51, 6-(4-(2-(5-cyclopropyl-3-(2,6-dichlorophenyl)isoxazol-4-yl)ethyl)-2-methylpiperazin-1-yl)quinoline-2-carboxylic Acid] was tested, and the Emax [1] was 96.5% and the EC50 was 74 nM.
`CC1CC(c2ccc3c(C(=O)O)cn(C)c3c2)CCN1CCc1c(-c2c(Cl)cccc2Cl)noc1C1CC1` (stereo not shown) [Example I57, 6-(1-(2-(5-cyclopropyl-3-(2,6-dichlorophenyl)isoxazol-4-yl)ethyl)-2-methylpiperidin-4-yl)-1-methyl-1H-indole-3-carboxylic Acid] gave an Emax [1] of 180% and an EC50 of 384 nM.
